Here are results for 25 compounds from patent US11427563B2, “Aryl cyclopropyl-amino-isoquinolinyl amide compounds” (Aerie Pharmaceuticals, Inc., priority 2018, dated 2022).

Molecules are shown by their SMILES. Bounds are passed on as bounds.

Assay [1] deals with IKKβ (Homo sapiens (Human), UniProt O14920). In words: IKKβ inhibition. It counts as biochemical. To be noted: for IC50: Table 1.
Assay [2] deals with ROCK2 enzyme (Homo sapiens (Human), UniProt O75116). In words: ROCK kinase inhibition assay (ROCK2). It counts as biochemical. To be noted: for IC50: Table 1.
Assay [3] concerns the target ROCK1 enzyme (Homo sapiens (Human), UniProt Q13464). In words: ROCK kinase inhibition assay (ROCK1). To be noted: Table 1. It counts as biochemical.
For assay [4], the target named is JAK3 enzyme (Homo sapiens (Human), UniProt P52333). In words: JAK kinase assay (JAK3). As to conditions: for IC50: Table 1. It counts as biochemical.
Assay [5] concerns Porcine Trabecular Meshwork cells (PTM). In words: PTM-HTM assay (actin fiber length in PTM cells). It counts as cell-based. As to conditions: Sus scrofa; Table 2. Here is the method:
Porcine Trabecular Meshwork cells (PTM) were isolated from freshly obtained enucleated porcine eyes. Immortalized Human Trabecular Meshwork cells (TM-1) were obtained through a kind gift from Donna Peters in the Department of Ophthalmology and Visual Sciences at the University of Wisconsin. Cells were plated onto fibronectin coated glass-bottom 96-well plates and allowed to attach overnight. Media was removed and replaced with test compound in media with 1% fetal bovine serum and incubated for various times. After incubation, cells were formaldehyde fixed, triton solubilized, and stained. PTM cells were stained with Alexa Fluor®488 phalloidin (F-actin) and Hoechst 33342 (nuclei). TM-1 cells were stained with anti-paxillin followed by Alexa Fluor®488 goat-anti-mouse IgG (focal adhesions) and Hoechst 33342 (nuclei). All staining reagents were obtained through Invitrogen. Images were collected on an INCell 2200 imager with a 20× objective. The actin fiber length and total area of focal adhesions were analyzed using custom algorithms developed in the INCell Developer Toolbox, v1.9.3. Data collected were converted to percent of control (untreated cells). Curves were fit to data in GraphPad Prizm using sigmoidal dose-response and constraining top and bottom to 100% and 0%, respectively.

Assay [6] concerns the target TYK2 (Homo sapiens (Human), UniProt P29597). In words: TYK2 inhibition. Format: biochemical. As to conditions: Table 1.
For assay [7], the system named is Stat5. In words: Stat5 assay. To be noted: Table 1. It counts as cell-based.
[8] abbreviates: Table 2, Ki from IC50 by Cheng-Prusoff.

Sequence of TYK2 (P29597 whole entry, species assumed): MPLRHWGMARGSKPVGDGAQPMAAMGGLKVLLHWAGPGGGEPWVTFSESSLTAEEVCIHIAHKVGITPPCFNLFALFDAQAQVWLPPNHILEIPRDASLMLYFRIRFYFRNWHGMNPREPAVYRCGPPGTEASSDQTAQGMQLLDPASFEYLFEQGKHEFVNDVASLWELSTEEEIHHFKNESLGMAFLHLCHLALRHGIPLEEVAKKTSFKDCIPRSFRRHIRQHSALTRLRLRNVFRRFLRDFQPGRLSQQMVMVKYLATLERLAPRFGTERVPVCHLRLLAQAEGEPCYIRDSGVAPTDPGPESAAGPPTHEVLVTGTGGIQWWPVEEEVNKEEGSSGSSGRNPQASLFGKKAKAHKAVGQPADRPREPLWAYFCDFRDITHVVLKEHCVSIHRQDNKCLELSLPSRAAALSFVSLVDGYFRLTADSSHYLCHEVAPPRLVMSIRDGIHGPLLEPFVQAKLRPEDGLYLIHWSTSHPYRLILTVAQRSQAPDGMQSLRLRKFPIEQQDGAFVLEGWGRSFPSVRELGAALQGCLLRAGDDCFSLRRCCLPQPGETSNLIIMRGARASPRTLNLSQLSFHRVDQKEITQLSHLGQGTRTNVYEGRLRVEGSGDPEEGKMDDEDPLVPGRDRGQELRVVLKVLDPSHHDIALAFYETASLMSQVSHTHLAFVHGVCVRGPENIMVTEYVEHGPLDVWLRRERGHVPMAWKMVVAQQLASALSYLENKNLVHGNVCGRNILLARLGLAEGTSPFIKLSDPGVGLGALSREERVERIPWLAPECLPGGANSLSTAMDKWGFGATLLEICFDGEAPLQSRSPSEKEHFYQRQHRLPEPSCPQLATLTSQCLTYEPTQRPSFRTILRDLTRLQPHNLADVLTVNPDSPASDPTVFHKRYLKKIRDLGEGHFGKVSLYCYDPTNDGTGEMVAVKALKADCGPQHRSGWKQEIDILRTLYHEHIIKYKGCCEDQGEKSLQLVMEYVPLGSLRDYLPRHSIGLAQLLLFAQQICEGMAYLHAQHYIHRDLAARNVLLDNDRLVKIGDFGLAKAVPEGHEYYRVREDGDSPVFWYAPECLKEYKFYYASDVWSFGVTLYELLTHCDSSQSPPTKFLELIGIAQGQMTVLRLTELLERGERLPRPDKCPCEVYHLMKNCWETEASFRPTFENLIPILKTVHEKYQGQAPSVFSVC
Sequence of IKKβ (O14920 whole entry, species assumed): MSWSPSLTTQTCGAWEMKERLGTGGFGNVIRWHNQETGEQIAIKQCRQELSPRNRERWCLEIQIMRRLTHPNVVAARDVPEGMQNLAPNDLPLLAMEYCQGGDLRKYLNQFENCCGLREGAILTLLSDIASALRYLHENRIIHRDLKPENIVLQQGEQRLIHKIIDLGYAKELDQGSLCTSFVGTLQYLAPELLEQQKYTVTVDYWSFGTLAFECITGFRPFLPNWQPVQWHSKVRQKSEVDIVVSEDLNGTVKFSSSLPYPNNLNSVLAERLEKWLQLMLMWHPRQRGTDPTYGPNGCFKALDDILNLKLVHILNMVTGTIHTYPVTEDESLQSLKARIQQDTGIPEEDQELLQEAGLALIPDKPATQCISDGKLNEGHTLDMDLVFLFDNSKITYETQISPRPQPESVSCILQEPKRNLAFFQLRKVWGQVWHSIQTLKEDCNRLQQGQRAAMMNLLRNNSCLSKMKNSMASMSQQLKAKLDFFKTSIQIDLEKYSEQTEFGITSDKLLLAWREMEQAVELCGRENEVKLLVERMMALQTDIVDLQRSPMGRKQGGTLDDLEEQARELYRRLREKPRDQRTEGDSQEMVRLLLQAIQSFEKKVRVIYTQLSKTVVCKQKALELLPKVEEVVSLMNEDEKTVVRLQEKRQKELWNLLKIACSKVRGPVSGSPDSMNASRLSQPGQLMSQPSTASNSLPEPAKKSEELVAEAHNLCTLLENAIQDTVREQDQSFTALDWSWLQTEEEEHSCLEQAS
Sequence of ROCK2 enzyme (O75116 whole entry, species assumed): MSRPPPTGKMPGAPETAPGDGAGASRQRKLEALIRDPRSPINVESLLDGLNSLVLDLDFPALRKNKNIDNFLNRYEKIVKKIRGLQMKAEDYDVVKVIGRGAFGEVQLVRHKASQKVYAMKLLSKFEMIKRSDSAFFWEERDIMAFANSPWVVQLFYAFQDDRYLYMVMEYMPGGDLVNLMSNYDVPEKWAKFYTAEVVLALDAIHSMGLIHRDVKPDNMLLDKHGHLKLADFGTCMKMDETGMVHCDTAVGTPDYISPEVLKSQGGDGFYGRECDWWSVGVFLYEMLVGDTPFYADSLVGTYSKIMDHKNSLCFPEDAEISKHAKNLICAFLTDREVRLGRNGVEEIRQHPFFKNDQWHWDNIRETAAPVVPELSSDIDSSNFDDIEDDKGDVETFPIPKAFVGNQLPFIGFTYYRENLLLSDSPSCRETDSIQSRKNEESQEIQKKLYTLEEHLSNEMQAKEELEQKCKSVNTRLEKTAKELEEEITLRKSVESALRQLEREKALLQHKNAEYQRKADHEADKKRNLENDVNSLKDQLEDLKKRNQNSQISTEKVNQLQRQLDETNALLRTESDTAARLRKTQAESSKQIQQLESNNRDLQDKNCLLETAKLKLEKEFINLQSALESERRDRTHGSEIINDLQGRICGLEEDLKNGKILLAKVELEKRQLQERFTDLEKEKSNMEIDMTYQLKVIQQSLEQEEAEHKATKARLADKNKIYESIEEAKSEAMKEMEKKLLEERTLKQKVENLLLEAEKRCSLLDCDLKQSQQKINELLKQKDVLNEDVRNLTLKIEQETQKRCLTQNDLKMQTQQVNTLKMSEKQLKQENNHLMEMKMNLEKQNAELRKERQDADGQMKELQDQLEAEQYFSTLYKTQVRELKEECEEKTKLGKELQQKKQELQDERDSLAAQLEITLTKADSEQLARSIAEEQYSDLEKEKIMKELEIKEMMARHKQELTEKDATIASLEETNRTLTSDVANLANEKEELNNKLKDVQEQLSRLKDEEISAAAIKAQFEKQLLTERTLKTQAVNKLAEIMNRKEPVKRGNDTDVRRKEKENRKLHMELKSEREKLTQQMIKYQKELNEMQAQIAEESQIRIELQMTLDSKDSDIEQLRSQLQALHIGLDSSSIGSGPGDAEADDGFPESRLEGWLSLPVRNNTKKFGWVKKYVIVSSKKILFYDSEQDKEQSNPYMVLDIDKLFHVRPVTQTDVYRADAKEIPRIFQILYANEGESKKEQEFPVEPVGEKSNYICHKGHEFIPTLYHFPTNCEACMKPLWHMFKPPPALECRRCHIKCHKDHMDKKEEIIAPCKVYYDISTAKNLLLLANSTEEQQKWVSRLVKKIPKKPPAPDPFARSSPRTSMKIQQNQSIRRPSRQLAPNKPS
Sequence of ROCK1 enzyme (Q13464 whole entry, species assumed): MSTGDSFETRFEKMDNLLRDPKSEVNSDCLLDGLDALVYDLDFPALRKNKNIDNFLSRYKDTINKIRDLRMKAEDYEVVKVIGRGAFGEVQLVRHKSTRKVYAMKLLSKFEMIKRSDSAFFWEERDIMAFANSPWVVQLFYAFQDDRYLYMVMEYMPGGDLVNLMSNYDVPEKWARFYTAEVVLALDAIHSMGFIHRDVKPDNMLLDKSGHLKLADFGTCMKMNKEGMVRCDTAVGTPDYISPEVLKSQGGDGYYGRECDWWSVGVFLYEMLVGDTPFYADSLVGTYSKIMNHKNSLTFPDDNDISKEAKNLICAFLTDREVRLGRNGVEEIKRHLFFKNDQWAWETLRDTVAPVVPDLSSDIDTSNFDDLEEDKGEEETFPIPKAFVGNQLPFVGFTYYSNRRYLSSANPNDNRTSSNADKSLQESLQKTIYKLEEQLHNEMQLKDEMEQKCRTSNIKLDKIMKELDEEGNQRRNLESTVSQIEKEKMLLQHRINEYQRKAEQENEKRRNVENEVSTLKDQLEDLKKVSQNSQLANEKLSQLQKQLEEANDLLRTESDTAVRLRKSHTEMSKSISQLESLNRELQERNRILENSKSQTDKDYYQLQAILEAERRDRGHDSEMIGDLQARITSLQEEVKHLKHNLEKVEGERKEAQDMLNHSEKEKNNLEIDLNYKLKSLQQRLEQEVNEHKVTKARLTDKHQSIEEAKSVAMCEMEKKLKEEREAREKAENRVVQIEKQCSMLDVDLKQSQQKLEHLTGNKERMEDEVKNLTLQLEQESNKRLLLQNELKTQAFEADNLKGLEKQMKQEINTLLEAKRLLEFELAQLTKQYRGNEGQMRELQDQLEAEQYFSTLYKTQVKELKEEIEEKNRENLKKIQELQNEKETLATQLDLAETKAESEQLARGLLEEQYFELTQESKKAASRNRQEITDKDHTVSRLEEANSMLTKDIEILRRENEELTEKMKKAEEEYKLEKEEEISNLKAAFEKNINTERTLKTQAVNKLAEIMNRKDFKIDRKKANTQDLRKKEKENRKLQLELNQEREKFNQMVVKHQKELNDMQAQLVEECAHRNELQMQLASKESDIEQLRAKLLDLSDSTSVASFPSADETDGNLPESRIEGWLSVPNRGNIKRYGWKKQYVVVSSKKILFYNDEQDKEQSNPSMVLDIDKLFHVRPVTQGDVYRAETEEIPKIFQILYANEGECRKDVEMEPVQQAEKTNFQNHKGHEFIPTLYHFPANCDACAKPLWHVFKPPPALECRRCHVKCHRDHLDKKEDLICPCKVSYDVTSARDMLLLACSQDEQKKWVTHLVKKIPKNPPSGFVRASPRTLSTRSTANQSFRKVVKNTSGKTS

With `Cc1cncc2ccc(NC(=O)[C@@H]3C[C@H]3c3ccc(S(=O)(=O)Nc4cncc(C5=CCNCC5)n4)cc3)cc12` [Compound 11], the IC50 in assay [1] worked out at 765 nM; in assay [2], 15 nM; in assay [3], 153 nM; in assay [4], 135 nM.
With `Cc1cncc2ccc(NC(=O)[C@@H]3C[C@H]3c3ccc(S(=O)(=O)NC4CCNC4)cc3)cc12` (stereo partly shown) [Compound 12], the IC50 in assay [1] came out at 759 nM; in assay [2], 21 nM; in assay [3] it was 21 nM; in assay [4] it was 175 nM.
Take `Cc1cncc2ccc(NC(=O)[C@@H]3C[C@H]3c3ccc(S(=O)(=O)Nc4ncc(C5CCNCC5)cn4)cc3)cc12` [Compound 1]: the IC50 came out at 1130 nM in assay [1], 4.9 nM in assay [2], 16 nM in assay [3] and 148 nM in assay [4].
Take `CN(C)Cc1ccc(NC(=O)c2cccc([C@@H]3C[C@H]3C(=O)Nc3ccc4cncc(Cl)c4c3)c2)nc1` [Compound 36]: the Ki in assay [1] (Table 2) was 1.19 µM; in assay [2] (setting [8]) it was 0.001 µM; in assay [4] (setting [8]), 0.211 µM. The compound also returned an IC50 in assay [5] of 0.012 µM.
Turning to `O=C(Nc1ccc2cncc(Cl)c2c1)[C@@H]1C[C@H]1c1ccc(S(=O)(=O)Nc2ccc(F)cn2)cc1` [Compound 15], the IC50 in assay [1] was found to be 88 nM; in assay [2] it was 56 nM; in assay [3], 156 nM; in assay [4], 4.8 nM.
For the compound `O=C(Nc1cccnn1)c1ccc(C2C[C@H]2C(=O)Nc2ccc3cnccc3c2)cc1` (stereo partly shown) [Compound 175], the IC50 in assay [5] turned out to be 0.65 µM.
Turning to `O=C(Nc1ccc2cncc(C(F)(F)F)c2c1)[C@@H]1C[C@H]1c1ccc(S(=O)(=O)Nc2ccccn2)cc1` [Compound 14], the IC50 in assay [1] came out at 16 nM; in assay [2], 108 nM; in assay [3], 122 nM; in assay [4], 9 nM.
Taken in the same sequence, the figures for `O=C(Nc1ccc2cnccc2c1F)[C@@H]1C[C@H]1c1ccc(S(=O)(=O)Nc2cccnc2)cc1` [Compound 29] were more than 5000 nM, 13.8 nM, 43 nM and 350 nM.
For `Cc1cncc2ccc(NC(=O)[C@@H]3C[C@H]3c3ccc(S(=O)(=O)NC4CCCNC4)cc3)cc12` (stereo partly shown) [Compound 13], in that order: 825 nM, 15 nM, 18 nM and 179 nM.
The compound `Cc1cncc2ccc(NC(=O)[C@@H]3C[C@H]3c3ccc(S(=O)(=O)Nc4cnccn4)cc3)cc12` [Compound 10] came in with an IC50 in assay [6] of 34 nM.
In the case of `O=C(Nc1ccc2cncc(C(F)(F)F)c2c1)[C@@H]1CC1c1ccc(S(=O)(=O)Nc2ncccn2)cc1` (stereo partly shown) [Compound 9], the IC50 in assay [1] amounted to 14 nM; in assay [2], 1160 nM; in assay [3], 1570 nM; in assay [4], 8.2 nM.
For `Cc1cncc2ccc(NC(=O)[C@@H]3C[C@H]3c3ccc(S(=O)(=O)Nc4nccs4)cc3)cc12` [Compound 32], in that order: 5 nM, 12.3 nM, 20 nM and 3.4 nM.
`O=C(Nc1ccc2cncc(Cl)c2c1)[C@@H]1CC1c1ccc(S(=O)(=O)Nc2ccc(F)cn2)cc1` (mixture of isomers) [Compound 16b]: the IC50 was determined as 12 nM in assay [6]; 70 nM in assay [1]; 25 nM in assay [2]; 74 nM in assay [3]; 2.9 nM in assay [4].
Consider `Cc1cncc2ccc(NC(=O)[C@@H]3C[C@H]3c3ccc(S(=O)(=O)Nc4cccnc4)cc3)cc12` [Compound 27], for which the IC50 in assay [6] worked out at 98 nM; in assay [2] it was 44 nM; in assay [4], 19 nM.
In the case of `Cc1cncc2ccc(NC(=O)[C@@H]3CC3c3ccc(S(=O)(=O)Nc4cnccn4)cc3)cc12` (stereo partly shown) [Compound 10], the IC50 was 105 nM in assay [1]; 74 nM in assay [2]; more than 1000 nM in assay [7]; 220 nM in assay [3]; 14 nM in assay [4].
Turning to `O=C(Nc1ccc2cnccc2c1)[C@@H]1CC1c1ccc(S(=O)(=O)Nc2ccccn2)c(F)c1` (stereo partly shown) [Compound 18], the 50% inhibitory concentration (IC50) in assay [1] is 17.5 nM; in assay [2], 4 nM; in assay [3], 6.4 nM; in assay [4], 19.5 nM.
Turning to `O=C(Nc1ccc2cnccc2c1)[C@@H]1CC1c1cc(F)ccc1S(=O)(=O)Nc1ccccn1` (stereo partly shown) [Compound 19], the figures for the IC50 in assay [3] and in assay [4] were 7400 nM and 6750 nM, respectively.
As to `O=C(Nc1ccc2cncc(Cl)c2c1)[C@@H]1C[C@H]1c1ccc(S(=O)(=O)Nc2ncccn2)cc1` [Compound 6], the concentration for half-maximal inhibition (IC50) in assay [1] came out at 4.1 nM; in assay [2] it was 68 nM; in assay [3], 128 nM.
In assay [1], `Cc1cncc2ccc(NC(=O)[C@@H]3CC3c3ccc(S(=O)(=O)Nc4cccnc4)cc3)cc12` (stereo partly shown) [Compound 27] registered an IC50 of 159 nM.
On to `N#Cc1cncc2ccc(NC(=O)[C@@H]3CC3c3ccc(S(=O)(=O)Nc4ccccn4)cc3)cc12` (stereo partly shown) [Compound 20], for which the IC50 in assay [1] amounted to 6.9 nM; in assay [2], 20 nM; in assay [3], 30 nM; in assay [4] it was 2.4 nM.
In the case of `CCc1cncc2ccc(NC(=O)[C@@H]3C[C@H]3c3ccc(S(=O)(=O)Nc4ncccn4)cc3)cc12` [Compound 7], the IC50 in assay [1] came out at 3.6 nM; in assay [2] it was 880 nM; in assay [3], 1090 nM; in assay [4], 5.8 nM.
Take `O=C(Nc1ccc2cncc(Cl)c2c1)[C@@H]1CC1c1ccc(S(=O)(=O)Nc2ccc(F)cn2)cc1` (mixture of isomers) [Compound 16a]: the IC50 came out at 7 nM in assay [6]; 88 nM in assay [1]; 56 nM in assay [2]; 156 nM in assay [3]; 4.8 nM in assay [4].
As for `CCc1cncc2ccc(NC(=O)[C@@H]3CC3c3ccc(S(=O)(=O)Nc4ccccn4)cc3)cc12` (stereo partly shown) [Compound 17], the IC50 in assay [2] came out at 45 nM; in assay [3] it was 44 nM; in assay [4], 4.2 nM.
On to `Cc1cncc2ccc(NC(=O)[C@@H]3CC3c3ccc(S(=O)(=O)Nc4ncc(F)cn4)cc3)cc12` (stereo partly shown) [Compound 8], for which the IC50 in assay [1] was found to be 7.3 nM; in assay [2] it was 93 nM; in assay [3], 121 nM; in assay [4], 3.9 nM.
On to `O=C(Nc1ccc2cncc(Cl)c2c1)[C@@H]1CC1c1ccc(S(=O)(=O)Nc2cccnc2)cc1` (stereo partly shown) [Compound 28], for which the IC50 was 210 nM in assay [6]; 381 nM in assay [1]; 67 nM in assay [2]; 57 nM in assay [7]; 160 nM in assay [3]; 18 nM in assay [4].

Broadly, the IC50 is the midpoint of a concentration-inhibition curve. Low readings indicate inhibition by little substance, high ones a need for much substance. What is called Ki is the dissociation constant of the complex between target and ligand, obtained from inhibition or displacement. Read a low Ki as a stronger hold on the target.
